These results are taken from patent US20180326022A1, “COMPOSITIONS AND METHODS FOR IMPROVING HEART FUNCTION AND TREATING HEART FAILURE” (The Trustees of the University of Pennsylvania, priority 2017, published 2018).

Data set [1] has as its system microtubules in contracting cardiomyocytes. The data set is described as follows: Microtubule buckling in contracting cardiomyocytes (Airyscan imaging). In kind it is cell-based, rat. The procedure: Confocal imaging was carried out on a Zeiss 780 laser scanning confocal scan head operating on an Axiovert Z1 inverted microscope equipped with a 40× oil 1.4 NA objective. High-speed super resolution imaging was carried out on a Zeiss 880 Airyscan confocal with a 63×1.4 oil NA objective (FIG. 8A-FIG. 8E, Airyscan application note can be found at http://www.zeiss.com/microscopy/enus/products/confocal-microscopes/Ism-880-with-airyscan-.html#downloads). Image analysis was performed using ZEN Black software for Airyscan processing, which involves signal integration from the 32 separate sub-resolution detectors in the Airyscan detector and subsequent deconvolution of this integrated signal (FIG. 8A-FIG. 8E). Additional signal processing was performed in Image J (NIH). For calculating the microtubule fraction of cell area (FIG. 2B-FIG. 2C), image analysis was performed blinded to the experimental treatment groups. A 1.5 μm max intensity projection was produced from 3 0.5 μm confocal z-sections. […] From the resulting binary images (FIG. 9B), the microtubule positive fraction of the total cell area was calculated for alpha and detyrosinated tubulin (FIG. 2C).
Analysis of buckling parameters was performed on 1-8 microtubules per image series. Analysis was done blind to the experimental condition and, where possible, followed a microtubule selected from resting frames to avoid biased selection of microtubules that buckled during contraction. A centerline was drawn along the axis of the microtubule and the maximum distance to the edge of the microtubule was recorded as the amplitude (FIG. 1G, red). MTs were further analyzed by recording the distance between 2 consecutive inflection points (FIG. 1G, yellow) as half the wavelength. This short metric was selected instead of full wavelength to maximize inclusion of microtubules for which labeling or z-displacement prevented inclusion of a full cycle in the image.

The next data set has as its system desmin KO myocytes. Kind of data set: AFM viscoelasticity, desmin KO mouse myocytes. It counts as cell-based. The settings on record: KO + PTL. The procedure: Animal care and procedures were approved and performed in accordance with the standards set forth by the University of Pennsylvania Institutional Animal Care and Use Committee and the Guide for the Care and Use of Laboratory Animals published by the US National Institutes of Health. Desmin knockout mice and WT littermates were provided by Dr. Robert Bloch and have been previously characterized (36). Experiments were performed blinded to genotype.
Viral constructs were permitted to express for 24-72 hours with Moi=100-200. Parthenolide (Fisher Scientific NC9013142) treatment was carried out at room temperature for 2 hours at 10 μM. All experiments were performed within 48 hours of isolation, except those involving shTTL, which were allowed 72 hours to improve knockdown efficiency.
(§1) The elastic modulus of isolated cardiomyocytes was measured using AFM indentation. Optical microscopy and AFM were performed simultaneously using an MFP3D AFM (Asylum Research) combined with an inverted Nikon TE-2000U microscope equipped with a Nikon 100×, 1.49 NA objective. TTL expression was determined by dsRED fluorescence captured via 532 nm laser excitation (CrystaLaser) and a CCD camera (Cascade-512B, Photometrics) at 900 ms exposure time controlled through the NIS Elements software package. […] Modulus characterization of myocytes was performed using 4.26 μm radius (R below) SiO2 microparticle epoxied to SiN cantilevers with nominal spring constant 0.03 N/m (CP-PNPS-SiO-A, Nano And More, USA). Cantilever spring constants were manually calibrated in air by thermal vibrations using the MFP3D prior to each experiment using a clean glass substrate. Inverse optical lever sensitivity was determined in myocyte buffer solution prior to each round of measurements.
E is the elastic modulus, υ, is the cell Poisson ratio and δ is the indentation depth. Transverse compression of the cardiomyocyte is performed over a range of indentation speeds and the indentation speed is divided by the total indentation depth to obtain an effective indentation rate, f. […]

The next data set concerns isolated cardiomyocytes. Kind of data set: Atomic force microscopy viscoelasticity (Standard Linear Solid Model). It counts as cell-based, rat. The settings on record: mean(SEM). The procedure:
as §1
Elastic moduli were determined by fitting the indentation curve to the Hertz model (Eq. 17) adjusted for a spherical indenter using the Asylum Research built in analysis software.
E is the elastic modulus, υ, is the cell Poisson ratio and δ is the indentation depth. Transverse compression of the cardiomyocyte is performed over a range of indentation speeds and the indentation speed is divided by the total indentation depth to obtain an effective indentation rate, f. Viscosity and velocity dependent elastic moduli were then derived by fitting each myocyte to a Standard Linear Solid Model: […]

Another data set concerns human myocytes. Kind of data set: Calcium measurements in human myocytes. It counts as cell-based. The procedure: Viable myocytes were concentrated by gravity (5-7 min) and supernatant was aspirated to remove dead cells. Myocytes were resuspended in NT solution containing 1 mM Ca^2+ and concentrated by gravity (5-7 min) again. Cardiomyocytes used acutely were maintained in NT solution for up to 6 hours. Myocytes were treated with 10 μM parthenolide (Fisher Scientific NC9013142 or Sigma P0667) or 10 μM colchicine (Sigma) at room temperature in NT solution for 2 hours. Experiments were performed within 6 hours of isolation, except for those involving viral transduction in cultured cells.
Calcium measurements were carried out as described in Example 1 with the following modifications. Myocytes were loaded with 1 μM Fluo-3-acetoxymethyl ester (Invitrogen) and 15% Pluronic F127 (a poloxamer made by BASF, Florham Park, N.J., USA) for 15 minutes. Cells were scanned using a 488-nm argon ion laser in confocal line-scan mode at 0.909 ms/line. Cells were electrically paced at 0.5 Hz at room temperature for 30 s to achieve steady state; five steady-state transients of each myocyte were averaged, pooled in groups and analyzed for calcium transient properties. The measured fluorescence (F) throughout the transient was normalized to the resting fluorescence prior to stimulation (F0) to normalize for heterogeneity in dye loading.

The mark [2] stands for this setting: NF human myocytes, suggested off-target effect.

For `C=C1C(=O)O[C@H]2[C@H]1CC/C(C)=C/CC[C@@]1(C)O[C@@H]21` [PTL, 4,5-epoxygermacra-1(10),11(13)-dien-12,6-olactone], in data set [1] (amplitude change on same followed MT between rest and contraction), the “Amp (Δ)” value stood at 0.078. Further, the “Amp Contract” value in data set [1] (buckling amplitude, contracted cardiomyocytes) was 0.212. For the same compound, the “Amp Rest” value in data set [1] (buckling amplitude, resting cardiomyocytes) amounted to 0.134. Further, the “N Buckled” value in data set [1] (number of buckled microtubules, N microtubules 24 (Parth) and 62 (TTL)) amounted to 9. Also, in data set [1] (vs control myocytes), the occurrence of buckling result is recorded as “fell significantly”. For the same compound, the “E1 (Pa)” value is 429.76 Pa in the data set with desmin KO myocytes and 170.6(22.5) Pa in the data set on isolated cardiomyocytes (velocity-independent elastic modulus). For the same compound, the figures for the “E2 (Pa)” value with desmin KO myocytes and in the data set on isolated cardiomyocytes (velocity-dependent elastic modulus) were 512.2 Pa and 215.3(25.0) Pa, respectively. Also, the “η (Pa*s)” value in the data set on desmin KO myocytes was 27.4 Pa*s; with isolated cardiomyocytes (SLSM-fit derived viscosity), 38.8(8.0) Pa*s. In addition, the “[Ca2+]i amplitude” value in the data set on human myocytes (setting [2]) is “reduced”. In addition, the “[Ca2+]i transient decay phase” value with human myocytes (setting [2]) is “prolonged”. Further, the “impaired [Ca2+]i cycling” value with human myocytes (failing human myocytes) is “neither colch nor PTL treatment improved”. Moreover, the “F0 (baseline fluo3 intensity) compared to initial levels” value in the data set with human myocytes (human myocytes) is given as “elevated”.
